Assay results reported in US7989631B2, “Hydrate forms of AMG706” (Amgen Inc., priority 2006, dated 2011).

What was measured:
[1] = Solubility of AMG 706 anhydrous diphosphate salt in water over time; assay type: physicochemical; details: thermodynamic from solid
Description: AMG 706 anhydrous diphosphate (˜100 mg) salt was added to 2 mL of water and placed on a rotator stirrer. Multiple runs were performed each at different temperatures between about room temperature to about 40° C. Solid was isolated at various time points by vacuum filtering the supernatant and the material was air-dried overnight.

[2] = Conversion of anhydrous diphosphate salt to monophosphate hydrate salt in water; assay type: physicochemical; details: in the presence of water or aqueous co-solvent mixtures
Excerpt: The anhydrous diphosphate sale of AMG 706 is currently manufactured as a crystalline form. This crystalline form is used in the table formulations for clinical trials.
The monophosphate dihydrate salt was isolated and characterized by various analytical tools for its physico-chemical properties. Interconversion kinetics of anhydrous diphosphate to monophosphate dihydrate was studied under various conditions.

solubility at 0.5 hr ([1]; time 0.5 hr, RT, pH 2.6): 22 mg/mL
solubility at 1 hr ([1]; time 1.0 hr, RT, pH 2.7): 21 mg/mL
solubility at 3 hr ([1]; time 3.0 hr, RT, pH 2.7): 21 mg/mL
solubility at 6 hr ([1]; 40 C, pH 2.6): 20 mg/mL
solubility at 6 hr ([1]; RT, pH 2.6): 21 mg/mL
solubility at 24 hr ([1]; 40 C, pH 3.0): 26 mg/mL
solubility at 24 hr ([1]; RT, pH 2.9): 21 mg/mL
Compound: CC1(C)CNc2cc(NC(=O)c3cccnc3NCc3ccncc3)ccc21 [AMG 706 anhydrous diphosphate, N-(2,3-dihydro-3,3-dimethyl-1H-indol-6-yl)-2-[(4-pyridinylmethyl)amino]-3-pyridinecarboxamide]
Solid-form stability (disproportionation/conversion) [2]: can disproportionate and convert to a more stable monophosphate hydrate salt
